Laboratory results: patent US20200131132A1, “FARNESOID X RECEPTOR AGONISTS AND USES THEREOF” (Metacrine, Inc., priority 2017, published 2020)

These compounds were tested against T1, hFXR (Homo sapiens, UniProt Q96RI1) (assay: In Vitro FXR Assay (TK)). Conditions: CV-1 cells transfected with hFXR, hRXR, TK-ECRE-luc and pCMX-YFP; compounds incubated 18 hrs; luminescence.
T1 construct: expressed in transfected cells; host or cells: CV-1 cells
T1 sequence (Q96RI1 1-486): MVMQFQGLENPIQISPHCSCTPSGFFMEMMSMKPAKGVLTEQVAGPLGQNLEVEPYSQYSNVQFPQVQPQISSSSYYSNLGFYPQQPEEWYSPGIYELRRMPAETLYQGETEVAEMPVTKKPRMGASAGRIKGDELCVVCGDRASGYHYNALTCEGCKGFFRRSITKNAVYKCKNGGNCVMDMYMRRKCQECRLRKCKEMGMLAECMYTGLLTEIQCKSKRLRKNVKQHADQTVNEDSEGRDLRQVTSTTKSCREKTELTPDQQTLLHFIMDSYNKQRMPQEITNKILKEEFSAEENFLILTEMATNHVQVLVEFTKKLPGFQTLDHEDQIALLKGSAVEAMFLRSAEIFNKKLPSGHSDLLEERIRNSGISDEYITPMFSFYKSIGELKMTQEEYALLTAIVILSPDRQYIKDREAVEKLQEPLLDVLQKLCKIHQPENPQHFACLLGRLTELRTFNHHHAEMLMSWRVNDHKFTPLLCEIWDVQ
T1 sequence (P19793 1-462 partner): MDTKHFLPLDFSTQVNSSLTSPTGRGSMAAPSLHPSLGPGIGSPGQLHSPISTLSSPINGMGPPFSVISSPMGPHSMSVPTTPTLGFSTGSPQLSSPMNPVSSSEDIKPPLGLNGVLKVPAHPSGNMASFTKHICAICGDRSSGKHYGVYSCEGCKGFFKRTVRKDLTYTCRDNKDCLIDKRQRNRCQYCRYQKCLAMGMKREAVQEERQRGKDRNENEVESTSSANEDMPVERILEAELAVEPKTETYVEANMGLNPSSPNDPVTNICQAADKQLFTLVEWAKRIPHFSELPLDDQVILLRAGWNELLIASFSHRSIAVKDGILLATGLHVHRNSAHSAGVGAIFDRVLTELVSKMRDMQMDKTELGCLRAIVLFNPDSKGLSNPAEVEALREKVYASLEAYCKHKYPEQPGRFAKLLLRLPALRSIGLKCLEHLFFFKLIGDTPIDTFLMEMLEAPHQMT
Format: cell-based
Method in brief: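 Luciferase read-out after 18 h compound exposure of CV-1 cells carrying transfected hFXR plus hRXR expression plasmids, TK-ECRE-luc reporter and pCMX-YFP. Cells cultured in charcoal-stripped FBS before transfection; compounds serially diluted in DMSO.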

Row | SMILES | EC50 [µM]
1 | COc1ccc(-c2ccc(CN(C(=O)CC(C)(C)C)c3nccc4c(OC)cccc34)cc2)cc1C [Compound 11.04, N-((4′-Methoxy-3′-methyl-[1,1′-biphenyl]-4-yl)methyl)-N-(5-methoxyisoquinolin-1-yl)-3,3-dimethylbutanamide] | 1 to 10
2 | COc1ccc(-c2ccc(CN(C(=O)CC(C)(C)C)c3nccc4cc(OCC(C)CO)ccc34)cc2)cc1C (stereo not shown) [Compound 10, N-(6-(3-Hydroxy-2-methylpropoxy)isoquinolin-1-yl)-N-((4′-methoxy-3′-methyl-[1,1′-biphenyl]-4-yl)methyl)-3,3-dimethylbutanamide] | ≤ 1
3 | COc1ccc(-c2ccc(CN(C(=O)CC(C)(C)C)c3nccc4c(C#N)cccc34)cc2)cc1C [Compound 13.02, N-(5-Cyanoisoquinolin-1-yl)-N-((4′-methoxy-3′-methyl-[1,1′-biphenyl]-4-yl)methyl)-3,3-dimethylbutanamide] | > 10
4 | COc1ccc(-c2ccc(CN(C(=O)CC(C)(C)C)c3nccc4cc(N5CCC(F)C5)ccc34)cc2)cc1C (stereo not shown) [Compound 6.12, N-(6-(3-Fluoropyrrolidin-1-yl)isoquinolin-1-yl)-N-((4′-methoxy-3′-methyl-[1,1′-biphenyl]-4-yl)methyl)-3,3-dimethylbutanamide] | ≤ 1
5 | COc1ccc(-c2ccc(CN(C(=O)CC(C)(C)C)c3nccc4cc(OC5CN(C(=O)OC(C)(C)C)C5)ccc34)cc2)cc1C [Compound 8.07, tert-Butyl 3-((1-(N-((4′-methoxy-3′-methyl-[1,1′-biphenyl]-4-yl)methyl)-3,3-dimethylbutanamido)isoquinolin-6-yl)oxy)azetidine-1-carboxylate] | > 10
6 | COC(=O)Nc1ccc2c(N(Cc3ccc(-c4ccc(OC)c(C)c4)cc3)C(=O)CC(C)(C)C)nccc2c1 [Compound 6.21, Methyl (l-(N-((4′-methoxy-3′-methyl-[1,1′-biphenyl]-4-yl)methyl)-3,3-dimethylbutanamido)isoquinolin-6-yl)carbamate] | ≤ 1
7 | COc1ccc(-c2ccc(CN(C(=O)CC(C)(C)C)c3nccc4cnccc34)cc2)cc1C [Compound 5.03, N-((4′-Methoxy-3′-methyl-[1,1′-biphenyl]-4-yl)methyl)-3,3-dimethyl-N-(2,6-naphthyridin-1-yl)butanamide] | 1 to 10
8 | COc1ccc2c(N(Cc3ccc(-c4ccc(OC)c(C)c4)cc3CO)C(=O)CC(C)(C)C)nccc2c1 [Compound 21, N-((3-(Hydroxymethyl)-4′-methoxy-3′-methyl-[1,1′-biphenyl]-4-yl)methyl)-N-(6-methoxyisoquinolin-1-yl)-3,3-dimethylbutanamide] | 1 to 10
9 | COc1ccc(-c2ccc(CN(C(=O)CC(C)(C)C)c3nccc4cc(OCCCCO)ccc34)cc2)cc1C [Compound 8.1, N-(6-(4-Hydroxybutoxy)isoquinolin-1-yl)-N-((4′-methoxy-3′-methyl-[1,1′-biphenyl]-4-yl)methyl)-3,3-dimethylbutanamide] | ≤ 1
10 | COc1ccc(-c2ccc(CN(C(=O)CC(C)(C)C)c3nccc4ccc(Br)cc34)cc2)cc1C [Compound 4.06, N-(7-Bromoisoquinolin-1-yl)-N-((4′-methoxy-3′-methyl-[1,1′-biphenyl]-4-yl)methyl)-3,3-dimethylbutanamide] | ≤ 1

Continued, values first:

Row | EC50 [µM] | SMILES
11 | ≤ 1 | COc1ccc(-c2ccc(CN(C(=O)CC(C)(C)C)c3nccc4sccc34)cc2)cc1C [Compound 4.05, N-((4′-Methoxy-3′-methyl-[1,1′-biphenyl]-4-yl)methyl)-3,3-dimethyl-N-(thieno[3,2-c]pyridine-4-yl)butanamide]
12 | ≤ 1 | COc1ccc(-c2ccc(CN(C(=O)CC(C)(C)C)c3nccc4cc(N5CCC(O)C5)cnc34)cc2)cc1C (stereo not shown) [Compound 6.2, N-(3-(3-Hydroxypyrrolidin-1-yl)-1,7-naphthyridin-8-yl)-N-((4′-methoxy-3′-methyl-[1,1′-biphenyl]-4-yl)methyl)-3,3-dimethylbutanamide]
13 | ≤ 1 | CNc1ccc2c(N(Cc3ccc(-c4ccc(OC)c(C)c4)cc3)C(=O)CC(C)(C)C)nccc2c1 [Compound 6.11, N-((4′-Methoxy-3′-methyl-[1,1′-biphenyl]-4-yl)methyl)-3,3-dimethyl-N-(6-(methylamino)isoquinolin-1-yl)butanamide]
14 | > 10 | COC(=O)c1cc(-c2ccc(OC)c(C)c2)ccc1CN(C(=O)CC(C)(C)C)c1nccc2cc(OC)ccc12 [Compound 20.01, Methyl 4′-methoxy-4-((N-(6-methoxyisoquinolin-1-yl)-3,3-dimethylbutanamido)methyl)-3′-methyl-[1,1′-biphenyl]-3-carboxylate]
15 | 1 to 10 | COc1ccc(-c2ccc(CN(C(=O)CC(C)(C)C)c3nccc4cc(N5CCNCC5)ccc34)cc2)cc1C [Compound 6.09, N-((4′-Methoxy-3′-methyl-[1,1′-biphenyl]-4-yl)methyl)-3,3-dimethyl-N-(6-(piperazin-1-yl)isoquinolin-1-yl)butanamide]
16 | 1 to 10 | COc1cccc(-c2ccc3c(N(Cc4ccc(-c5ccc(OC)c(C)c5)cc4)C(=O)CC(C)(C)C)nccc3c2)n1 [Compound 15.01, N-((4′-Methoxy-3′-methyl-[1,1′-biphenyl]-4-yl)methyl)-N-(6-(6-methoxypyridin-2-yl)isoquinolin-1-yl)-3,3-dimethylbutanamide]
17 | ≤ 1 | COc1ccc(-c2ccc(CN(C(=O)CC(C)(C)C)c3nccc4cc(OC5CCC(O)C5)ccc34)cc2)cc1C (stereo not shown) [Compound 10.02, N-(6-((3-Hydroxycyclopentyl)oxy)iso-quinolin-1-yl)-N-((4′-methoxy-3′-methyl-[1,1′-biphenyl]-4-yl)methyl)-3,3-dimethylbutanamide]
18 | ≤ 1 | COCc1ccc2c(N(Cc3ccc(-c4ccc(OC)c(C)c4)cc3)C(=O)CC(C)(C)C)nccc2c1 [Compound 9.03, N-((4′-Methoxy-3′-methyl-[1,1′-biphenyl]-4-yl)methyl)-N-(6-(methoxymethyl)isoquinolin-1-yl)-3,3-dimethylbutanamide]
19 | 1 to 10 | COC(=O)COc1ccc2c(N(Cc3ccc(-c4ccc(OC)c(C)c4)cc3)C(=O)CC(C)(C)C)nccc2c1 [Compound 9.01, Methyl 2-((1-(N-((4′-methoxy-3′-methyl-[1,1′-biphenyl]-4-yl)methyl)-3,3-dimethylbutanamido)isoquinolin-6-yl)oxy)acetate]
